According to patent publication US20240270821A1, “GIP/GLP1/GCG TRI-RECEPTOR AGONISTS AND USES THEREOF” (priority 2023, published 2024):
Read-outs that look alike come from different tables or passages of the source. Starred links: 1 amine or outer side, 2 acyl side, 3 side chain; linkers in the order of their positions; H or OH if unused. Non-standard residues stand in square brackets, D forms with d. Residues, ends and D or L forms follow the SMILES beside them. Groups on a side chain read outwards from the residue. No end group written: not given here. *: point of attachment. C20 diacid = O=C(O)CCCCCCCCCCCCCCCCCCC(=O)*; C18 diacid = O=C(O)CCCCCCCCCCCCCCCCC(=O)*; Phe(4-CN) = N#Cc1ccc(C[C@H](N)C(=O)O)cc1; αMePhe(2-F) = C[C@](N)(Cc1ccccc1F)C(=O)O; γGlu = O=C(O)[C@H](CCC(=O)[*:2])N[*:1]; αMe4Pal = C[C@](N)(Cc1ccncc1)C(=O)O; αMeY = C[C@](N)(Cc1ccc(O)cc1)C(=O)O; 4Pal = N[C@@H](Cc1ccncc1)C(=O)O; αMeL = CC(C)C[C@](C)(N)C(=O)O; αMeS = C[C@](N)(CO)C(=O)O; Orn = NCCC[C@H](N)C(=O)O; AEEA = NCCOCCOCC(=O)O; Aib = CC(C)(N)C(=O)O

Columns and labels:
Format in all cases: cell-based
hGIPR [1] = biological target: T1, hGIPR (Homo sapiens, UniProt P48546); assay: Functional cAMP activity in the presence of 1% HSA; settings: read-out: cAMP Rel EC50, hGIPR
T1 sequence (P48546 22-466): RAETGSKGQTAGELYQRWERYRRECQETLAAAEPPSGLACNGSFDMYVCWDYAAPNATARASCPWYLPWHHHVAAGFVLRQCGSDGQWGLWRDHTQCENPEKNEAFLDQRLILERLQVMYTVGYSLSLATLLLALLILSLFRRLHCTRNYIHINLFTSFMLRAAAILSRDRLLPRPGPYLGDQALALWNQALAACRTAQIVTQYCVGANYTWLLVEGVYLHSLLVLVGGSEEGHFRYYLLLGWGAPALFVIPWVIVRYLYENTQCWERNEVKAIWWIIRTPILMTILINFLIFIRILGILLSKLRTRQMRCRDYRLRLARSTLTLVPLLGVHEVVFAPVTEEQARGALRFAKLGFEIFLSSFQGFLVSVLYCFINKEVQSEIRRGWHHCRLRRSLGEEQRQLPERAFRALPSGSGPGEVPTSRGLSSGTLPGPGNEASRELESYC

hGLP-1R [2] = biological target: T2, hGLP-1R (Homo sapiens, UniProt P43220); assay: Functional cAMP activity in the presence of 1% HSA; settings: read-out: cAMP Rel EC50, hGLP-1R
T2 sequence (P43220 24-463): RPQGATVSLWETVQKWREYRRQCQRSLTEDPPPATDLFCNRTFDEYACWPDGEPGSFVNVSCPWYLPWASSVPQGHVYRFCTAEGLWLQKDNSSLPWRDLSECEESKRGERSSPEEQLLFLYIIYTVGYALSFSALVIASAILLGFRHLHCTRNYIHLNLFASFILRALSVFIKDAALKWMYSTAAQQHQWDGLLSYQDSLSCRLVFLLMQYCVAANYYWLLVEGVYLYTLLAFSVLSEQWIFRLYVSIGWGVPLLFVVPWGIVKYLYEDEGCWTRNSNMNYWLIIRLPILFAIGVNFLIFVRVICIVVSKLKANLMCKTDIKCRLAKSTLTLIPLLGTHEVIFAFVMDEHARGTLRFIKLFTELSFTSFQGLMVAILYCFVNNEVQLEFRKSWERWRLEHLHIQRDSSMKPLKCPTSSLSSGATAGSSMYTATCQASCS

hGIPR [3] = biological target: T1, hGIPR; assay: Functional cAMP activation in the presence of 0.1% casein (no HSA); settings: read-out: Relative cAMP EC50, hGIPR;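 for Relative cAMP EC50, hGIPR: intracellular cAMP rise after 30 min at 37 °C read by HTRF against a standard curve, scaled between buffer alone (0%) and top control ligand concentration (100%), four-parameter fit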;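 for Relative cAMP EC50, hGLP-1R: intracellular cAMP rise after 30 min at 37 °C read by HTRF, normalized between buffer only (0%) and maximal control ligand (100%), four-parameter variable-slope fit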;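 for Relative cAMP EC50, hGcgR: intracellular cAMP rise after 30 min at 37 °C, read by HTRF against a cAMP standard curve, scaled from buffer only (0%) to maximal control ligand response (100%)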
hGcgR = hGcgR (Homo sapiens, UniProt P47871); assay: as above; settings: read-out: Relative cAMP EC50, hGcgR;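 note: intracellular cAMP rise after 30 min at 37 °C, read by HTRF against a cAMP standard curve, scaled from buffer only (0%) to maximal control ligand response (100%)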
hGcgR, sequence (P47871 26-477): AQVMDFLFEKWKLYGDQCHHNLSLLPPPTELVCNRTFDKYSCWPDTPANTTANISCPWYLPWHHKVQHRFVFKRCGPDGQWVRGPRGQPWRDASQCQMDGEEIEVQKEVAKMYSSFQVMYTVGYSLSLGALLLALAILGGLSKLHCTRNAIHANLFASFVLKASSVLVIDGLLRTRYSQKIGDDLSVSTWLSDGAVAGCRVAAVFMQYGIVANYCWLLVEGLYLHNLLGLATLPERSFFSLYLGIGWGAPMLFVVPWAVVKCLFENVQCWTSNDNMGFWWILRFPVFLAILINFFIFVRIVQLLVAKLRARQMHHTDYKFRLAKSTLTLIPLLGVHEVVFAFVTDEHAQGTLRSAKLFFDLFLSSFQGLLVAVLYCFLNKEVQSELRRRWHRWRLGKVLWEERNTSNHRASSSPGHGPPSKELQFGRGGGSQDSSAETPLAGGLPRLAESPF

hGLP-1R [4] = biological target: T2, hGLP-1R; assay: as above; settings: read-out: Relative cAMP EC50, hGLP-1R
human GcgR = human GcgR (Homo sapiens, UniProt P47871); assay: Functional cAMP activity in the presence of 1% HSA; settings: read-out: cAMP Rel EC50, hGcgR
human GcgR, sequence (P47871 26-477): as above

[5] = in the presence of 0.1% casein (no HSA), geometric mean

Molecule	EC50 (hGIPR [1]) [nM]	EC50 (hGLP-1R [2]) [nM]	EC50 (hGIPR [3]; [5]) [nM]	EC50 (hGcgR; [5]) [nM]	EC50 (hGLP-1R [4]; [5]) [nM]	EC50 (human GcgR) [nM]	EC50 (hGIPR [3]) [nM]	EC50 (hGcgR) [nM]	EC50 (hGLP-1R [4]) [nM]
H-Y[Aib]QGTFTSD[4Pal]SQ[αMeL]LD[Orn]K([AEEA-γGlu-C18 diacid])AQ[αMe4Pal]AFIE[αMeY]LIEGGPSSGAPPPSGS-NH2 [Example 849]	36.6	111	0.306	6.66	0.661	1160	–	–	–
H-Y[Aib]QGTFTSD[4Pal][αMeS]Q[αMeL]LD[Orn]K([dE-γGlu-C18 diacid])AQ[αMe4Pal]QFIE[αMeY]LIA[Aib]GPSSGEPPPSGGGE-NH2 [Example 1182]	2.73	80.4	0.0316	1.24	0.797	172	–	–	–
Y[Aib]QGTFTSD[4Pal]SQ[αMeL]LD[Orn]K([AEEA-γGlu-C18 diacid])AQ[αMe4Pal]AFIE[αMeY]LLEGGPSSGAPPPSGS-NH2 [Example 932]	25	249	0.188	2.67	1.61	513	–	–	–
Y[Aib]QGTFTSD[4Pal]SQ[αMeL]LDKK([dE-dE-γGlu-C18 diacid])AQ[αMe4Pal]AFIEYLIE[Aib]GPSSGAPPPSGSE-NH2 [Example 925]	23	708	0.147	8.19	4.19	2500	–	–	–
H-Y[Aib]QGTFTSDFS[Orn][αMeL]LDKK([AEEA-γGlu-C18 diacid])AQ[Aib]AFIEYLIE[Aib]SPSSGAPPPSGS-NH2 [Example 804]	17.6	161	0.0751	11.5	0.915	2310	–	–	–
H-Y[Aib]QGTFTSDFS[Orn][αMeL]LDKK([AEEA-γGlu-C18 diacid])AQ[Aib]AFIEYLLEGGPSSGAPPPEGT-NH2 [Example 160]	44.4	482	0.354	4.32	5.39	479	–	–	–
H-Y[Aib]QGTFTSD[4Pal]SQ[αMeL]LDKK([AEEA-γGlu-C18 diacid])AQ[αMe4Pal]AFIEYLIE[Aib]GPSSGAPPPEGS-NH2 [Example 851]	24.4	428	0.215	3.38	3.06	558	–	–	–
H-Y[Aib]QGTFTSDYSI[αMeL]LDKQAAK([AEEA-AEEA-γGlu-C20 diacid])AFVEWLLA[Aib]GPSSGEPPPSEG-NH2 [Example 317]	62.8	234	0.474	2.42	1.32	1500	–	–	–
Y[Aib]QGT[αMePhe(2-F)]TSDYSILLDKQAAK([AEEA-γGlu-C20 diacid])EFIEYLIEGGPSSGAPPPSEG-NH2 [Example 340]	60.4	246	0.189	2.02	0.648	647	–	–	–
H-Y[Aib]QGTFTSD[4Pal]SR[αMeL]LDKK([AEEA-γGlu-C18 diacid])AQ[Aib]AFIE[αMeY]LLEGGPSSGAPPPSGS-NH2 [Example 909]	20.2	243	0.121	6.82	1.72	1740	–	–	–
H-Y[Aib]QGTFTSD[4Pal]SK[αMeL]LDKK([γGlu-γGlu-C18 diacid])AQ[Aib]AFIEYLIE[Aib]GPSSGAPPPSGSE-NH2 [Example 904]	15	198	0.194	9.88	1.94	1330	–	–	–
H-Y[Aib]QGT[αMePhe(2-F)]TSD[4Pal][αMeS]I[αMeL]LD[Orn]K([AEEA-γGlu-C18 diacid])AQ[αMe4Pal]EFI[dE][αMeY]LVEGGPSSGEPPPTGE-NH2 [Example 1153]	1.39	52.7	0.0109	2.69	0.33	215	–	–	–
H-Y[Aib]QGTFTSD[Phe(4-CN)]S[Orn][αMeL]LDKK([AEEA-γGlu-C18 diacid])AQ[Aib]AFIEYLLE[Aib]GPSSGAPPPSGS-NH2 [Example 191]	47.4	230	0.422	2.11	2.48	344	–	–	–
H-Y[Aib]QGTFTSD[4Pal]SR[αMeL]LDKK([AEEA-γGlu-C18 diacid])AQ[Aib]AFIEYLIE[Aib]GPSSGAPPPSGS-NH2 [Example 802]	16.9	153	0.124	16.6	1.41	2520	–	–	–
H-Y[Aib]QGTFTSD[4Pal]S[Orn][αMeL]LDKK([γGlu-γGlu-C18 diacid])AQ[Aib]AFIE[αMeY]LLEGGPSSGAPPPSGS-NH2 [Example 942]	28.3	490	0.188	6.32	3.52	1560	–	–	–
CC[C@H](C)[C@H](NC(=O)[C@H](Cc1ccccc1)NC(=O)[C@H](C)NC(=O)C(C)(C)NC(=O)[C@H](CCC(N)=O)NC(=O)[C@H](C)NC(=O)[C@H](CCCCNC(=O)CC[C@H](NC(=O)CC[C@H](NC(=O)CCCCCCCCCCCCCCCCC(=O)O)C(=O)O)C(=O)O)NC(=O)[C@H](CCCCN)NC(=O)[C@H](CC(=O)O)NC(=O)[C@H](CC(C)C)NC(=O)[C@H](CC(C)C)NC(=O)[C@@H](NC(=O)[C@H](CO)NC(=O)[C@H](Cc1ccc(O)cc1)NC(=O)[C@H](CC(=O)O)NC(=O)[C@H](CO)NC(=O)[C@@H](NC(=O)[C@](C)(Cc1ccccc1F)NC(=O)[C@@H](NC(=O)CNC(=O)[C@H](CCC(N)=O)NC(=O)C(C)(C)NC(=O)[C@@H](N)Cc1c[nH]cn1)[C@@H](C)O)[C@@H](C)O)[C@@H](C)CC)C(=O)N[C@@H](CCC(=O)O)C(=O)N[C@@H](Cc1ccc(O)cc1)C(=O)N[C@@H](CC(C)C)C(=O)N[C@@H](CCC(=O)O)C(=O)N[C@@H](CCC(=O)O)C(=O)NCC(=O)NCC(=O)N1CCC[C@H]1C(=O)N[C@@H](CO)C(=O)N[C@@H](CO)C(=O)NCC(=O)N[C@@H](C)C(=O)N1CCC[C@H]1C(=O)N1CCC[C@H]1C(=O)N1CCC[C@H]1C(=O)N[C@@H](CO)C(N)=O [Example 426] (H-H[Aib]QGT[αMePhe(2-F)]TSDYSILLDKK([γGlu-γGlu-C18 diacid])AQ[Aib]AFIEYLEEGGPSSGAPPPS-NH2)	29.8	16.6	–	–	–	740	0.079	4.33	0.139
H-Y[Aib]QGTFTSDFSK[αMeL]LDKK([AEEA-γGlu-C20 diacid])AQ[Aib]AFIEYLLAGGPSSGEPPPGGS-NH2 [Example 9]	41.8	402	0.205	7.19	1.61	1430	–	–	–
CC[C@H](C)[C@H](NC(=O)[C@H](Cc1ccccc1)NC(=O)[C@H](CCCN)NC(=O)C(C)(C)NC(=O)[C@H](CCC(N)=O)NC(=O)[C@H](C)NC(=O)[C@H](CCCCNC(=O)COCCOCCNC(=O)CC[C@H](NC(=O)CCCCCCCCCCCCCCCCC(=O)O)C(=O)O)NC(=O)[C@H](CCCN)NC(=O)[C@H](CC(=O)O)NC(=O)[C@H](CC(C)C)NC(=O)[C@](C)(CC(C)C)NC(=O)[C@@H](NC(=O)[C@](C)(CO)NC(=O)[C@H](Cc1ccncc1)NC(=O)[C@H](CC(=O)O)NC(=O)[C@H](CO)NC(=O)[C@@H](NC(=O)[C@](C)(Cc1ccccc1F)NC(=O)[C@@H](NC(=O)CNC(=O)[C@H](CCC(N)=O)NC(=O)C(C)(C)NC(=O)[C@@H](N)Cc1ccc(O)cc1)[C@@H](C)O)[C@@H](C)O)[C@@H](C)CC)C(=O)N[C@H](CCC(=O)O)C(=O)N[C@@H](Cc1ccc(O)cc1)C(=O)N[C@@H](CC(C)C)C(=O)N[C@@H](CC(C)C)C(=O)N[C@@H](CCC(=O)O)C(=O)NCC(=O)NCC(=O)N1CCC[C@H]1C(=O)N[C@@H](CO)C(=O)N[C@@H](CO)C(=O)NCC(=O)N[C@@H](CCC(=O)O)C(=O)N1CCC[C@H]1C(=O)N1CCC[C@H]1C(=O)N1CCC[C@H]1C(=O)N[C@@H](CCC(=O)O)C(N)=O [Example 460] (H-Y[Aib]QGT[αMePhe(2-F)]TSD[4Pal][αMeS]I[αMeL]LD[Orn]K([AEEA-γGlu-C18 diacid])AQ[Aib][Orn]FI[dE]YLLEGGPSSGEPPPE-NH2)	8.93	31.1	–	–	–	142	0.0624	1.89	0.636
H-Y[Aib]QGTFTSDFS[Orn][αMeL]LDKK([AEEA-γGlu-C20 diacid])AQ[Aib]AFIEYLLEGGPSSGEPPPSEG-NH2 [Example 59]	166	1370	0.54	6.57	4.8	2160	–	–	–
